For data set [1], the system named is rHRSV-mCherry. Conditions: read-out: EC50 (half-maximal response inhibitory concentration), inhibition of RSV infection; HEp-2 cells, MOI 0.2, peptides added after 2 h infection, mCherry fluorescence at 48 h postinfection; duplicates.
In data set [2] the test system is BALB/c mice. The data set is described as follows: In vivo toxicity assessment in uninfected BALB/c mice.
The nature of data set [3]: Circular dichroism spectroscopy, α-helical content. Type of data set: physicochemical. Conditions: CD, 10 mM phosphate buffer pH 7.5, 50 μM peptide, 25°C, calculated from ellipticity at 222 nm; average of three measurements. An outline of the steps: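 Peptides at 50 μM in 10 mM phosphate, pH 7.5, scanned 180–260 nm at 25 °C in a 0.5-mm cell, three scans averaged and buffer-subtracted. Percent helicity derived from per-residue molar ellipticity at 222 nm using a length-corrected 40,000 maximum.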

Data set [4] relates to rHRSV-Luc. The data set is described as follows: Mouse RSV infection model (rHRSV-Luc, bioluminescence, lung histology).
The subject of data set [5] is HEp-2 cells. The data set is described as follows: HEp-2 cell viability (CellTiter-Glo luminescent cell viability assay). Conditions: peptide alone at 50 μM; duplicates. On the technique in general: In ATP-based viability assays light output follows the ATP content of the culture.
Protocol: (B) HEp-2 cell viability upon treatment with peptides alone at peptide concentrations of 50, 25, and 12.5 μM. Error bars are standard deviations from duplicates. Data are representative of those from two independent experiments.
Cytotoxicity assays were done with the CellTiter-Glo luminescent cell viability assay (Promega). Each experiment was performed in duplicate and repeated at least twice.
The subject of data set [6] is BSRT7/5 cells. The data set is described as follows: Viability of BSRT7/5 cells transfected with the minigenome. The conditions noted are these: 25 μM peptide.
Description: BSRT7/5 cells were transfected with plasmids pP, pN, pM2-1, pL, and pM/Luc, together with pRSV-β-Gal for transfection standardization. […] Error bars are standard deviations from duplicates. Data are representative of those from two independent experiments.
Briefly, the dicistronic RSV minigenome pM/Luc was cotransfected into BSRT7/5 cells expressing T7 RNA polymerase, together with plasmids pN, pP, pL, and pM2-1, resulting in the replication and transcription of the minigenome.
Data set [7] deals with RSV. Conditions: monthly injection during the peak season, at-risk infants; cited from earlier work. The text has this: Respiratory syncytial virus (RSV) is very contagious and represents the main cause of severe acute respiratory tract illness in young children worldwide. […] A recent study performed by Pneumonia Etiology Research for Child Health ...
Setting [8] is: 2 dpi, one i.n. treatment 50 μl at 215 μM, 1 × 10^5 PFU rHRSV-Luc, n = 5.
Where [9] appears, read: 4 dpi, i.n. treatment at day 0 and 2 dpi, n = 5, Mann-Whitney test.

Where a SMILES comes first, the peptide text is derived from it. Bridges are numbered along the chain shown (N, C = ends). [ ]: non-standard residue; d: D form. R8 = C=CCCCCCC[C@@](C)(N)C(=O)O; R5 = C=CCCC[C@@](C)(N)C(=O)O; S5 = C=CCCC[C@](C)(N)C(=O)O Some results are limits rather than exact numbers.

Turning to `CC[C@H](C)[C@H](NC(=O)[C@]1(C)CCCC=CCCCCCC[C@@](C)(NC(=O)[C@H](CCC(=O)O)NC(=O)[C@H](CC(N)=O)NC(=O)[C@H](C)NC(=O)[C@]2(C)CCCC=CCCC[C@@](C)(NC(=O)[C@H](Cc3ccccc3)NC(=O)[C@H](CCC(=O)O)NC(C)=O)C(=O)NCC(=O)N[C@@H](CCC(=O)O)C(=O)N2)C(=O)N[C@@H](C)C(=O)N[C@@H]([C@@H](C)O)C(=O)N[C@@H](CCCCN)C(=O)N[C@@H](Cc2ccccc2)C(=O)N[C@@H](CC(C)C)C(=O)N[C@@H](CCC(=O)O)C(=O)N1)C(=O)N[C@@H](CCCCN)C(=O)N[C@@H](CCCCN)C(=O)N[C@@H](CCCCN)C(=O)N[C@@H](Cc1ccccc1)C(=O)N[C@@H](C)C(=O)N[C@@H](CO)C(N)=O` [5a] (Ac-EF[R5]GE[S5]ANE[R8]ATKFLE[S5]IKKKFAS-NH2; staple 3-6, 10-17), the EC50 in data set [1] is 18.4 ± 9.3 µM. Further, the “Animals with focal lesions of the pulmonary parenchyma with infiltration by neutrophils (histology)” value in data set [2] (BALB/c mice n = 5, i.n. 50 μl at 215 μM at days 0 and 2, day 4, HES staining) is 3 of the 5. For the same molecule, in data set [2] (BALB/c mice n = 5, i.n. 50 μl at 215 μM at days 0 and 2, lungs collected at day 4), the Macroscopic lung examination result is on record as “no macroscopic sign of toxicity”. In data set [2] (BALB/c mice n = 5, i.n. 50 μl at 215 μM in PBS at days 0 and 2, days 0 to 4), the “Body weight monitoring, signs of toxicity” value is “did not reveal any signs of toxicity”. Further, in data set [3], the “% helicity” value is listed as over 100%. In data set [4] (setting [8]), the “Reduction in the level of RSV replication in the noses versus untreated mice” value stood at 2 fold and the “Whole luminescence signal versus untreated infected mice” value is “no significant difference”. In addition, the “Intensity of interstitial pneumonia (lung histology)” value in data set [4] (4 dpi, HES staining, versus RSV-infected PBS mice) is “decreased”. Besides, the “Animals with vascular and bronchial lesions (lung histology)” value in data set [4] (4 dpi, HES staining, all 5 untreated infected animals showed lesions) was 2 out of 5. In data set [4] (setting [9]), the “Amount of bioluminescence versus untreated control group” value is on record as “significant reduction” and the “Bioluminescence in the lungs versus untreated RSV-infected mice” value is reported as “significantly reduced”. In addition, the “Body weight of RSV-infected treated animals” value in data set [4] (daily monitoring, i.n. treatment at day 0 and 2 dpi, n = 5) is “statistically nonsignificant loss of weight”. The “Toxicity for uninfected HEp-2 cells (cell viability)” value in data set [5] is “no toxicity”.

Turning to `CC[C@H](C)[C@H](NC(=O)[C@]1(C)CCCC=CCCCCCC[C@@](C)(NC(=O)[C@H](CCC(=O)O)NC(=O)[C@H](CC(N)=O)NC(=O)[C@H](C)NC(=O)[C@]2(C)CCCC=CCCC[C@@](C)(NC(=O)[C@H](Cc3ccccc3)NC(=O)[C@H](CCC(=O)O)NC(C)=O)C(=O)NCC(=O)N[C@@H](CCCCN)C(=O)N2)C(=O)N[C@@H](C)C(=O)N[C@@H]([C@@H](C)O)C(=O)N[C@@H](CCCCN)C(=O)N[C@@H](Cc2ccccc2)C(=O)N[C@@H](CC(C)C)C(=O)N[C@@H](CCC(=O)O)C(=O)N1)C(=O)N[C@@H](CCCCN)C(=O)NCC(=O)N[C@@H](CCCCN)C(=O)N[C@@H](Cc1ccccc1)C(=O)N[C@@H](C)C(=O)N[C@@H](CO)C(N)=O` [5d] (Ac-EF[R5]GK[S5]ANE[R8]ATKFLE[S5]IKGKFAS-NH2; staple 3-6, 10-17), the “Cell mortality of minigenome-transfected BSRT7/5 cells” value in data set [6] was determined as 40%. For the same molecule, in data set [1], the EC50 stood at 6 ± 4.2 µM. In data set [3], the “% helicity” value is listed as 75.7%. Also, the “Toxicity for uninfected HEp-2 cells (cell viability)” value in data set [5] is “some toxicity”.

With “palivizumab: monoclonal antibody administered monthly as an injectable for RSV prophylaxis”, the “Efficacy of prophylactic treatment” value in data set [7] is on record as “approximately 50%”.
